Key:
[1] = system: HCV RNA replicon in cell line ET (luc-ubi-neo/ET), human Huh7 hepatoma; test: HCV RNA replicon assay (Example 5, Method A); type: cell-based; details: Hepatitis C virus, Huh-7, 72 h
Experimental: The compounds were assayed to evaluate the antiviral activity and cytotoxicity of compounds in vitro using HCV RNA replicons. This assay used the cell line ET (luc-ubi-neo/ET), which is a human Huh7 hepatoma cell line that contains an HCV RNA replicon with a stable luciferase (Luc) reporter and cell culture-adaptive mutations. The HCV RNA levels were directly measured by viral specific TaqMan RT-PCR:
The ET cell line was grown in Dulbecco's modified essential media (DMEM), 10% fetal bovine serum (FBS), 1% penicillin-streptomycin (pen-strep), 1% glutamine, 250 μg/mL G418 in a 5% CO2 incubator at 37° C. All cell culture reagents were obtained from Mediatech (Manassas, Va.). Cells were trypsinized (1% trypsin:EDTA) and plated out at 5×10^3 cells/well in white 96-well assay plates (Costar) dedicated to cell number (cytotoxicity) or antiviral activity assessments. Drugs were added at six 3-fold concentrations each and the assay was run in DMEM, 5% FBS, 1% pen-strep, 1% glutamine. Human interferon alpha-2b (PBL Biolabs, New Brunswick, N.J.) was included in each run as a positive control compound. […] Antiviral activity was measured by analyzing replicon-derived luciferase activity using the Steady-Glo Luciferase Assay System (Promega, Madison, Wis.) according to manufacturer's instruction. The number of cells in each well was determined by CytoTox-1 reagent (Promega). […]

[2] = molecular target: T1, HCV (D168V) mutant (Hepatitis C virus genotype 1b, UniProt P26663, D1194V); test: Mass spectrometric analysis of covalent modification, D168V mutant; type: binding; details: 3 hours reaction time
T1 construct: genotype 1b mutations in the NS3 protease of A156T, A156S, D168V, D168A, and R155K
Experimental: (§1) Mass spectrometric analysis of HCV wild type or HCV variants (C159S, A156S, R155K, D168A, A156T, and D168V) in the presence of test compound was performed. 100 pmols of HCV wild type (Bioenza Calif.) was incubated with test compound for 1 hr and 3 hrs at 10-fold excess of test compound to protein. 1 μL aliquots of the samples (total volume of 4.24 μL) were diluted with 10 μL of 0.1% TFA prior to micro C4 ZipTipping directly onto the MALDI target using Sinapinic acid as the desorption matrix (10 mg/mL in 0.1% TFA:Acetonitrile 50:50). Analyses were performed on a Shimadzu Biotech Axima TOF (Shimadzu Instruments) matrix-assisted-laser desorption/ionization Time-of-Flight (MALDI-TOF) mass spectrometer. The same procedure was carried out on 100 pmols of HCV C159S mutant of HCV protease for 3 hrs at 10-fold excess of test compound to protein.

[3] = molecular target: T2, HCV (A156S) mutant (Hepatitis C virus genotype 1b, UniProt P26663, A1182S); test: Mass spectrometric analysis of covalent modification, A156S mutant; type: binding; details: 3 hours reaction time
T2 construct: genotype 1b mutations in the NS3 protease of A156T, A156S, D168V, D168A, and R155K
Experimental: as §1

[4] = system: HCV (R155K) mutant; test: Mass spectrometric analysis of covalent modification, R155K mutant; type: binding; details: 3 hours reaction time
Experimental: as §1

[5] = molecular target: T3, HCV (A156T) mutant (Hepatitis C virus genotype 1b, UniProt P26663, A1182T); test: Mass spectrometric analysis of covalent modification, A156T mutant; type: binding; details: 3 hours reaction time
T3 construct: genotype 1b mutations in the NS3 protease of A156T, A156S, D168V, D168A, and R155K
Experimental: as §1

[6] = molecular target: T4, NS3 protease self-cleavage in Huh-7-Luc-Neo-ET cells (Hepatitis C virus genotype 1b, UniProt Q9WMX2, E1202G/T1280I); type: cell-based, HCV; details: replicon cells treated for 16 hours, continuous exposure (FIG. 3)
T4 construct: host or cells: Huh-7-Luc-Neo-ET replicon cells (human hepatoma Huh7)
Experimental: Inhibition of Protease Self Cleavage
The remaining wells were rinsed 2× with PBS then fed with Replicon Media and returned to the incubator.
Cell lysates were separated by SDS-Page (4-20%) and transferred to Immobilon-P PVDF membrane (Millipore Corporation, MA) and blotted with polyclonal anti NS3 antibody (Bioenza, Calif.). Blots were scanned on an Odyssey infrared scanner from Licor and the FL band and cleavage products were quantified separately using the Licor software provided with the scanner. The cleavage product was calculated as a percentage of the total NS3 in each sample and then normalized to the DMSO control so that the DMSO control reflects 100% activity.

## C=C[C@@H]1C[C@]1(NC(=O)[C@@H]1C[C@@H](Oc2cc(-c3ccccc3)nc3cc(OC)ccc23)CN1C(=O)C(NC(=O)OC(C)(C)C)[C@@H](C)OC(=O)/C=C/C)C(=O)NS(=O)(=O)C1CC1 (stereo partly shown) [Compound 3]
[1]; read-out: Inhibition, Replicon (IC50)
  IC50: < 10 nM
[1]; read-out: Inhibition, Replicon, IC90 value
  IC90: < 10 nM

## C=CC(=O)N(C)C[C@H](NC(=O)OC(C)(C)C)C(=O)N1C[C@H](OC(=O)N2Cc3cccc(F)c3C2)C[C@H]1C(=O)N[C@]1(C(=O)NS(=O)(=O)C2CC2)C[C@H]1C=C [Compound 4]
[2]
  conversion via covalent modification (mass spectrometry): complete conversion
[3]
  conversion via covalent modification (mass spectrometry): complete conversion
[4]
  conversion via covalent modification (mass spectrometry): good conversion
[5]
  conversion via covalent modification (mass spectrometry): complete conversion

## CC(C)(C)OC(=O)NC1CN(C(=O)CCl)CCC/C=C\[C@@H]2C[C@@]2(C(=O)NS(=O)(=O)C2CC2)NC(=O)[C@@H]2C[C@@H](OC(=O)N3Cc4cccc(F)c4C3)CN2C1=O (stereo partly shown) [Compound 8]
[6]
  NS3 internal self-cleavage products after treatment: inhibited

From patent US8603737B2, “Methods for identifying HCV protease inhibitors” (priority 2008, dated 2013)
